Source: patent US8865894B2, “Oxazolidin-2-one compounds and uses thereof” (Novartis AG, priority 2012, dated 2014)

Key:
human PI3Kα = target: T1, human PI3Kα (Homo sapiens, UniProt P42336); experiment: Biochemical PI3Kalpha (KinaseGlo luminescent kinase assay); settings: biochemical, 1 μM ATP, mean of n measurements
T1 construct: made in house
Experimental: Test compounds were dissolved in DMSO (10 mM) and transferred into 1.4 mL flat bottom or V-shaped Matrix tubes carrying a unique 2D matrix chip by individual Novartis compound hubs. The numbers of these chips were distinctively linked to Novartis Pharma Numbers. The stock solutions were stored at −20° C. if not used immediately. For the test procedure the vials were defrosted and identified by a scanner whereby a working sheet was generated that guided the subsequent working steps.
Compounds were either manually diluted in DMSO for individual experiments (96 wells enabling 10 cpds at 8 (single points) concentrations) as described in or prepared as described below if tested for profiling in 384-wells. This format enabled the assay of maximally 40 individual test compounds at 8 concentrations (single points) including 4 reference compounds. The dilution protocol included the production of “pre-dilution plates”, “master plates” and “assay plates”.
96 polypropylene well plates were used as pre-dilution plates. A total of 4 pre-dilution plates were prepared including 10 test compounds each on the plate positions A1-A10, one standard compound at A11 and one DMSO control at A12. Programs have been written to run these pipetting steps on the HamiltonSTAR robots.
Identical “assay plates” were then prepared by pipetting 50 nL each of compound dilutions of the “master plates” into 384-well “assay plates”. The compounds were mixed with 4.5 μL of assays components plus 4.5 μL enzyme corresponding to a 1:181 dilution enabling the final concentration of 10, 3.0, 1.0, 0.3, 0.1, 0.03, 0.01 and 0.003 μM, respectively. The preparation of the “master plates” was handled by the Matrix PlateMate Plus robot and replication of “assay plates” by the HummingBird robot.
Catalytically active human PI3Kα, PI3Kβ, PI3Kδ, and mTOR were cloned, expressed and purified as described (Maira S M, Stauffer F, Brueggen J, Furet P, Schnell C, Fritsch C, Brachmann S, Chène P, de Pover A, Schoemaker K, Fabbro D, Gabriel D, Simonen M, Murphy L, Finan P, Sellers W, García-Echeverría C (2008), Mol Cancer Ther. 7:1851-63 and Maira S M, Pecchi S, Brueggen J, Huh K, Schnell C, Fritsch C, Nagel T, Wiesmann M, Brachmann S, Dorsch M, Chène P, Schoemaker K, De Pover A, Menezes D, Fabbro D, Sellers W, García-Echeverría C, Voliva C F (2011), Mol. Cancer Ther. accepted).
The luminescence-based ATP detection reagent KinaseGlo was obtained from Promega, (Cat. No. V6714, Lot No. 236161) through Catalys, Wallisellen, Switzerland. (L-alpha-phosphatidylinositol (PI), Liver, Bovine) were obtained from Avanti Polar Lipid (Cat. No. 840042C, Lot#LPI-274), Phosphatidylinositol-4,5-bisphosphate (PIP(4,5)2 (Avanti, Cat. No. 840046×) or L-α-phosphatidylinositol (PI) was obtained from Avanti Polar Lipid (Cat. No. 840042C, Lot#LPI-274). L-α-Phosphatidylserine (PS) was from Avanti Polar Lipid (Cat. No. 840032C), n-OctylGlucoside Avanti Polar Lipid (Cat. No. 10634425001). Luminescence is a well established readout to determine ATP concentrations and can thus be used to follow the activity of many kinases regardless of their substrate. The Kinase Glo Luminescent Kinase Assay (Promega, Madison/Wis., USA) is a homogeneous HTS method of measuring kinase activity by quantifying the amount of ATP remaining in solution following a kinase reaction.
50 nL of compound dilutions were dispensed onto black 384-well low volume Non Binding Styrene (NBS) plates (Costar Cat. No. NBS#3676) as described in section 8.2. L-α-phosphatidylinositol (PI), provided as 10 mg/ml solution in methanol, was transferred into a glass tube and dried under nitrogen beam. It was then resuspended in 3% OctylGlucoside by vortexing and stored at 4° C. 5 μL of a mix of PI/OG with the PI3Ka and Pi3Kb subtypes were added. Kinase reactions were started by addition of 5 μl of ATP-mix containing in a final volume 10 μL 10 mM TRIS-HCl pH 7.5, 3 mM MgCl2, 50 mM NaCl, 0.05% CHAPS, 1 mM DTT and 1 μM ATP, and occurred at room temperature.

T1 sequence (P42336 with tags, fused parts or gaps limits assumed): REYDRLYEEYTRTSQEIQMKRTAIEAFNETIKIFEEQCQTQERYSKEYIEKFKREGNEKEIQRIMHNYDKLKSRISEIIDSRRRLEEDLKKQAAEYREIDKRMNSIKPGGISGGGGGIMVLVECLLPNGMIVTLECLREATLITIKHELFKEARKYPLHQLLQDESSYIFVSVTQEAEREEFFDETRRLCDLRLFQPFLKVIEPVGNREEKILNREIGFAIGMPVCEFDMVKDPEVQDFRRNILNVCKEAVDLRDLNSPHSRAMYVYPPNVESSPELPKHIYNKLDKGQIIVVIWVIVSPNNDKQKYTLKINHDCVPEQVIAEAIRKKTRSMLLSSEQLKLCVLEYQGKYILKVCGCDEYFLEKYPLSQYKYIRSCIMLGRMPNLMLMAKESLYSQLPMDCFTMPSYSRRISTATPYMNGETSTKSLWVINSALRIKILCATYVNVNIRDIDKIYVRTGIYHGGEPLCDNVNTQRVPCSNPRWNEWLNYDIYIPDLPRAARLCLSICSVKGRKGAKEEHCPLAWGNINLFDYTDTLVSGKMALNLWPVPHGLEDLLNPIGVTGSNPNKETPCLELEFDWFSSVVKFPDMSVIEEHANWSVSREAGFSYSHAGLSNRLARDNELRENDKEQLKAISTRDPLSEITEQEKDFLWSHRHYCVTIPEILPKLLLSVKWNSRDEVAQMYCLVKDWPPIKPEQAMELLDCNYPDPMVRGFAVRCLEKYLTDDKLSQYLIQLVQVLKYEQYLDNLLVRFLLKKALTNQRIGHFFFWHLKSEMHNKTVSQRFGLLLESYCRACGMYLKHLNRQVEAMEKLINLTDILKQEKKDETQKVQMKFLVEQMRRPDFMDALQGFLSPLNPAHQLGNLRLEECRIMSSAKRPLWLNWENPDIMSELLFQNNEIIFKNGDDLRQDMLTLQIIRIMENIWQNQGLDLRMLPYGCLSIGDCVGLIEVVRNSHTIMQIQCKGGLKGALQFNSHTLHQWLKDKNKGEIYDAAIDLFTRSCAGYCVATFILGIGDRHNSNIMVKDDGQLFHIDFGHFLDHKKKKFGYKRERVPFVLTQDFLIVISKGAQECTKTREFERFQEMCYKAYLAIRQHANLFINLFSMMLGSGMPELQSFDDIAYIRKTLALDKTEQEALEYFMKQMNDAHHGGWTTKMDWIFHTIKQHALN

melting point [°C]	PI3Ka/ IC50 (human PI3Kα) [umol I-1]	Compound
217.7	0.008	C[C@H]1OC(=O)N(c2cc(-c3cnc(N)nc3C(F)(F)F)nc(N3CCOC[C@@H]3C)n2)[C@H]1CO [Example 10, (4S,5R)-3-[2′-Amino-2-((S)-3-methyl-morpholin-4-yl)-4′-trifluoromethyl-[4,5′]bipyrimidinyl-6-yl]-4-hydroxymethyl-5-methyl-oxazolidin-2-one]
	0.019	Nc1ncc(-c2cc(N3C(=O)O[C@H]4COC[C@H]43)nc(N3CCOCC3)n2)c(C(F)(F)F)n1 [Example 21, (3aR,6aR)-3-(2′-amino-2-morpholino-4′-(trifluoromethyl)-[4,5′-bipyrimidin]-6-yl)-tetrahydrofuro[3,4-d]oxazol-2(3H)-one]
	0.006	C[C@H]1[C@@H](CCO)OC(=O)N1c1cc(-c2cnc(N)nc2C(F)(F)F)nc(N2CCOCC2)n1 [Example 23, (4S,5R)-3-(2′-Amino-2-morpholino-4′-(trifluoromethyl)-[4,5′-bipyrimidin]-6-yl)-5-(2-hydroxyethyl)-4-methyloxazolidin-2-one]
